Like-named read-outs stand apart in the source and are kept apart here.
What was measured:
Thanatephorus cucumeris = assay: Ex vivo mycelial growth, growth rate method; assay type: cell-based; conditions: 1 mg/mL; for inhibition at 1000 µg/mL: mycelial growth
Sclerotinia sclerotiorum = assay: Ex vivo mycelial growth, growth rate method; assay type: cell-based; conditions: 1 mg/mL; for inhibition at 1000 µg/mL: mycelial growth
[1] = system: Erysiphe cucurbitacearum or Sphaerotheca cucurbitae; assay: In-vivo control of zucchini powdery mildew in a greenhouse
Description: (2) In-Vivo Determination Method • Zucchini (Variety: Wuwei Xianglin extra-early 1st generation) were cultured in pots in a greenhouse, and inoculated with Erysiphe cucurbitacearum or Sphaerotheca cucurbitae at the stage of 3 to 4 leaves. […] Both sides of the leaves were sprayed evenly with a small hand-held sprayer so that the leaves were wetted by the liquor without loss. Applications were conducted every 7 days consecutively for 4 times. 10 days after the fourth application, the number of disease leaves at each grade of powdery mildew was investigated for the whole plant following the grading standard of 9 grades, to calculate the disease index and the control effect. The computational formula is as below: Disease index=[(Number of disease leaves at each grade×Corresponding grade value)/(Total number of investigated leaves×9)]×100; Control effect=(Disease index of the clear water control−Treated disease index)/Disease index of the clear water control×100.

E. cichoracearum = assay: Field efficiency test on cucumber powdery mildew; conditions: 0.50 mg/mL (active ingredients)
Description: The first application was started on Jun. 15, 2018, and E. cichoracearum was inoculated on June 17th (the diseased leaves were harvested from the solar greenhouse near the military airfield at Xiaguanying town, Yuzhong County, moisturized in the greenhouse for 2 days, then shredded, and filtered over a gauze, the filtrate was sprayed onto both sides of the cucumber leaves with the cone nozzle of an electric sprayer for inoculation). The second, third and fourth applications were conducted on June 23rd, July 2nd, and July 9th respectively, the water consumptions of which were adjusted promptly according to the amount of water desired for spraying evenly onto both sides of the control leaves. 10 days after the fourth application, the number of disease leaves at each grade of powdery mildew was investigated following the grading standard of 9 grades, to calculate the disease index and the control effect.

[2] = system: Botryosphaeriana berengeriana; assay: Ex vivo mycelial growth, growth rate method (line 'Botryosphaeriana berengeriana', r23); assay type: cell-based; conditions: Botryosphaeriana berengeriana (first line), 1 mg/mL; for inhibition at 1000 µg/mL: mycelial growth
Pyricularia grisea = assay: microbe, parasite or virus in culture; assay type: cell-based; conditions: for Average Diameter of the Colony: 1 mg/mL; for inhibition at 1000 µg/mL: read-out: Inhibition Rate
[3] = system: damping-off (P. aphanidermatum, P capsici); assay: In-vivo control of eggplant damping-off in a greenhouse (sick soil); conditions: 0.80 mg/mL, 200 mL liquor per pot
Description: (§1) (2) In-Vivo Determination Method • Sick soil of damping-off (P. aphanidermatum, P capsici) was collected from the fields of tomatoes, eggplants and peppers in solar greenhouse, and mixed evenly in equal proportion. Tomatoes (Variety: Song Tian Fen Yang Yang, 100 grains), eggplants (Variety: Lanza No. 2 F1 long eggplant, 100 grains), pepper (Longjiao 2 F1, 100 grains) were seeded quantitatively with the sick soil in pots (diameter: 15 cm) in a greenhouse, additionally with sterile vermiculite as the control (each 100 grains for determining the germination rate). […] The computational formula is as below: Mortality of Seedlings (%)=[number of survival seedlings in the seeded grains−number of seeded grains×(100%−germination rate)]/number of seeded grains×100; Control Effect (%)=(mortality of control seedlings−mortality of treated seedlings)/mortality of control seedlings×100.

Exserohilum turcicum = assay: Ex vivo mycelial growth, growth rate method; assay type: cell-based; conditions: 1 mg/mL; for inhibition at 1000 µg/mL: mycelial growth
Phytophthora infestans [4] = assay type: cell-based; conditions: Phytophthora infestans (second line); 1 mg/mL
plant pathogenic fungi = assay: organism not typed; assay type: cell-based
Valsa mali = assay: Ex vivo mycelial growth, growth rate method; assay type: cell-based; conditions: 1 mg/mL; for inhibition at 1000 µg/mL: Cytospora mali, mycelial growth
Mycosphaerlla melonis = assay: Ex vivo mycelial growth, growth rate method; assay type: cell-based; conditions: 1 mg/mL; for inhibition at 1000 µg/mL: mycelial growth
F. graminearum = assay: microbe, parasite or virus in culture; assay type: cell-based; conditions: for Average Diameter of the Colony: F. graminearum (second line), 1 mg/mL; for inhibition at 1000 µg/mL: Fusarium graminearum, read-out: Inhibition Rate
Fusarium graminearum = assay: microbe, parasite or virus in culture; assay type: cell-based; conditions: for Average Diameter of the Colony: Fusarium graminearum (first line), 1 mg/mL; for inhibition at 1000 µg/mL: Fusarium graminearum, read-out: Inhibition Rate
[5] = system: Botryosphaeria berengeriana; assay: Ex vivo mycelial growth, growth rate method (line 'Botryosphaeria berengeriana', r34); assay type: cell-based; conditions: Botryosphaeria berengeriana (second line), 1 mg/mL; for inhibition at 1000 µg/mL: mycelial growth
[6] = system: Gaeumannomyces graminis var. graminis and G. graminis var. tritici; assay: Ex vivo mycelial growth, growth rate method; assay type: cell-based; conditions: 1 mg/mL; for inhibition at 1000 µg/mL: mycelial growth
C. gossypii = assay: Ex vivo mycelial growth, growth rate method; assay type: cell-based; conditions: 1 mg/mL; for inhibition at 1000 µg/mL: Colletotrichum gossypii, mycelial growth
Coniella diplodiella = assay: Ex vivo mycelial growth, growth rate method; assay type: cell-based; conditions: 1 mg/mL; for inhibition at 1000 µg/mL: mycelial growth
Phytophthora infestans [7] = assay type: cell-based; conditions: Phytophthora infestans (first line); 1 mg/mL
Botrytis cinerea = assay: Ex vivo mycelial growth, growth rate method; assay type: cell-based; conditions: 1 mg/mL; for inhibition at 1000 µg/mL: mycelial growth
E. polygoni = assay: In-vivo control of marrow bean powdery mildew in a greenhouse
Description: (2) In-Vivo Determination Method • Marrow bean (Variety: Thailand Jiadouwang) were cultured in pots in a greenhouse, and inoculated with E. polygoni at the stage of 4 leaves. […] Both sides of the leaves were sprayed evenly with a small hand-held sprayer so that the leaves were wetted by the liquor without loss. Applications were conducted every 7 days consecutively for 4 times. 10 days after the fourth application, the number of disease leaves at each grade of powdery mildew was investigated for the whole plant following the grading standard of 9 grades, to calculate the disease index and the control effect.

Phytophthora capsici = assay: Ex vivo mycelial growth, growth rate method; assay type: cell-based; conditions: for Average Diameter of the Colony / inhibition at 1000 µg/mL: Phytophthora capsici, 1 mg/mL; for inhibition at 1000 µg/mL: mycelial growth; for antifungal activity on Phytophthora capsici compared with hymexazol: supplementary determination results
[8] = system: damping-off (P. aphanidermatum, P capsici); assay: In-vivo control of pepper damping-off in a greenhouse (sick soil); conditions: 0.80 mg/mL, 200 mL liquor per pot
Description: as §1

Colletotrichum capsici = assay: Ex vivo mycelial growth, growth rate method; assay type: cell-based; conditions: 1 mg/mL; for inhibition at 1000 µg/mL: Colletotrichum truncatum, mycelial growth
F. verticillioide = assay: Ex vivo mycelial growth, growth rate method; assay type: cell-based; conditions: 1 mg/mL; for inhibition at 1000 µg/mL: mycelial growth
[9] = system: F. oxysporum f. sp. vasinfectum; assay: Ex vivo mycelial growth, growth rate method; assay type: cell-based; conditions: 1 mg/mL; for inhibition at 1000 µg/mL: Fusarium oxysporum, mycelial growth
F. oxysporum f. sp. lini = assay: Ex vivo mycelial growth, growth rate method; assay type: cell-based; conditions: 1 mg/mL; for inhibition at 1000 µg/mL: Fusarium oxysporum, mycelial growth
Rhizoctonia solani = assay: Ex vivo mycelial growth, growth rate method; assay type: cell-based; conditions: 1 mg/mL; for inhibition at 1000 µg/mL: mycelial growth
zucchini powdery mildew = assay: Field efficiency test on zucchini powdery mildew; assay type: in vivo; conditions: 0.50 mg/mL
[10] = system: Blumeria graminis f. sp. trilici; assay: In-vivo control of wheat powdery mildew in a greenhouse; set-up: species or system Blumeria graminis f. sp. trilici on winter wheat
Pythium aphanidermatum = assay: Ex vivo mycelial growth, growth rate method; assay type: cell-based; conditions: 1 mg/mL; for inhibition at 1000 µg/mL: mycelial growth
Pythium ultimum = assay: Supplementary determination of antifungal activity; conditions: supplementary determination results
Description: (3) Ex Vivo Bioassay Method • The inhibition of samples for testing on the mycelial growth of plant pathogenic fungi for testing is determined with a growth rate method. […] Fungal cakes with a diameter of 4 mm are taken from the edge of the colony, inoculated into the center of a PDA plate containing different agents of different concentrations and the DMSO control, with one piece of fungal cake inoculated in each plate (with a diameter of 9 mm), and incubated in a constant temperature incubator at a temperature of 22±1.5° C. 7 days later (10˜20 days may be needed for some pathogenic fungi), the diameter of the colony is measured with a cross over method according to the mycelial growth profile of the control pathogenic fungi, then the inhibition rate of mycelial growth is calculated. The computational formula is as below: the inhibition rate of mycelial growth (%)=[(the diameter of the control colony−the diameter of the treated colony)/the diameter of the control colony]×100.

Compound: CCOC(=O)/C=C/c1ccc2c(c1)OCO2
- Average Diameter of the Colony (Thanatephorus cucumeris): 3.75 cm
- inhibition at 1000 µg/mL (Thanatephorus cucumeris): 56.4%
- Average Diameter of the Colony (Sclerotinia sclerotiorum): 4.71 cm
- inhibition at 1000 µg/mL (Sclerotinia sclerotiorum): 45.2%
- Control Effect ([1]; 0.20 mg/mL): 77.06%
- Control Effect ([1]; 0.333 mg/mL): 96.21%
- Control Effect ([1]; 0.50 mg/mL): 97.93%
- control effect on cucumber powdery mildew (E. cichoracearum): 80.95%
- Average Diameter of the Colony [2]: 4.20 cm
- inhibition at 1000 µg/mL [2]: 26.3%
- Average Diameter of the Colony (Pyricularia grisea): 2.70 cm
- inhibition at 1000 µg/mL (Pyricularia grisea): 25.6%
- control effect on eggplant damping-off [3]: 53.63%
- Average Diameter of the Colony (Exserohilum turcicum): 1.52 cm
- inhibition at 1000 µg/mL (Exserohilum turcicum): 75.5%
- Average Diameter of the Colony (Phytophthora infestans [4]): 0.00 cm
- inhibition at 1000 µg/mL (plant pathogenic fungi; read-out: inhibition rate on mycelial growth, range over 5 fungi): 88.8 to 100%
- Average Diameter of the Colony (Valsa mali): 0.00 cm
- inhibition at 1000 µg/mL (Valsa mali): 100%
- Average Diameter of the Colony (Mycosphaerlla melonis): 0.75 cm
- inhibition at 1000 µg/mL (Mycosphaerlla melonis): 91.3%
- Average Diameter of the Colony (F. graminearum): 1.73 cm
- inhibition at 1000 µg/mL (F. graminearum): 79.9%
- Average Diameter of the Colony (Fusarium graminearum): 3.00 cm
- inhibition at 1000 µg/mL (Fusarium graminearum): 43.9%
- Average Diameter of the Colony [5]: 3.45 cm
- inhibition at 1000 µg/mL [5]: 49.3%
- Average Diameter of the Colony [6]: 2.45 cm
- inhibition at 1000 µg/mL [6]: 65.7%
- Average Diameter of the Colony (C. gossypii): 1.74 cm
- inhibition at 1000 µg/mL (C. gossypii): 67.8%
- Average Diameter of the Colony (Coniella diplodiella): 0.00 cm
- inhibition at 1000 µg/mL (Coniella diplodiella): 100%
- Average Diameter of the Colony (Phytophthora infestans [7]): 2.01 cm
- Average Diameter of the Colony (Botrytis cinerea): 2.17 cm
- inhibition at 1000 µg/mL (Botrytis cinerea): 71%
- Control Effect (E. polygoni; 0.10 mg/mL): 75.92%
- Control Effect (E. polygoni; 0.143 mg/mL): 95.20%
- Control Effect (E. polygoni; 0.20 mg/mL): 95.49%
- Average Diameter of the Colony (Phytophthora capsici): 1.42 cm
- inhibition at 1000 µg/mL (Phytophthora capsici): 73.2%
- antifungal activity on Phytophthora capsici compared with hymexazol (Phytophthora capsici): superior to that of the control agent, hymexazol
- control effect on pepper damping-off [8]: 52%
- Average Diameter of the Colony (Colletotrichum capsici): 1.49 cm
- inhibition at 1000 µg/mL (Colletotrichum capsici): 78%
- Average Diameter of the Colony (F. verticillioide): 2.91 cm
- inhibition at 1000 µg/mL (F. verticillioide): 13.9%
- Average Diameter of the Colony [9]: 2.58 cm
- inhibition at 1000 µg/mL [9]: 64.4%
- Average Diameter of the Colony (F. oxysporum f. sp. lini): 6.97 cm
- inhibition at 1000 µg/mL (F. oxysporum f. sp. lini): 22.6%
- Average Diameter of the Colony (Rhizoctonia solani): 0.80 cm
- inhibition at 1000 µg/mL (Rhizoctonia solani): 88.8%
- Control Effect (zucchini powdery mildew): 85.56%
- Control Effect ([10]; 0.143 mg/mL): 74.28%
- Control Effect ([10]; 0.20 mg/mL): 77.65%
- Average Diameter of the Colony (Pythium aphanidermatum): 2.60 cm
- inhibition at 1000 µg/mL (Pythium aphanidermatum): 61.2%

Compound: CCOC(=O)/C=C/c1ccc(OC)c(OC)c1 [ethyl 3-(3′,4′-dimethoxyphenyl) acrylate]
- Average Diameter of the Colony (Thanatephorus cucumeris): 0.94 cm
- inhibition at 1000 µg/mL (Thanatephorus cucumeris): 89.1%
- Average Diameter of the Colony (Sclerotinia sclerotiorum): 1.34 cm
- inhibition at 1000 µg/mL (Sclerotinia sclerotiorum): 84.4%
- Control Effect ([1]; 0.20 mg/mL): 81.83%
- Control Effect ([1]; 0.333 mg/mL): 95.52%
- Control Effect ([1]; 0.50 mg/mL): 98.63%
- control effect on cucumber powdery mildew (E. cichoracearum): 85.18%
- Average Diameter of the Colony [2]: 1.58 cm
- inhibition at 1000 µg/mL [2]: 72.3%
- Average Diameter of the Colony (Pyricularia grisea): 5.47 cm
- inhibition at 1000 µg/mL (Pyricularia grisea): 39.2%
- control effect on eggplant damping-off [3]: 48.71%
- Average Diameter of the Colony (Exserohilum turcicum): 0.56 cm
- inhibition at 1000 µg/mL (Exserohilum turcicum): 91%
- Average Diameter of the Colony (Phytophthora infestans [4]): 0.00 cm
- inhibition at 1000 µg/mL (plant pathogenic fungi; read-out: inhibition rate on mycelial growth, range over 12 fungi): 84.4 to 100%
- Average Diameter of the Colony (Valsa mali): 0.00 cm
- inhibition at 1000 µg/mL (Valsa mali): 100%
- Average Diameter of the Colony (Mycosphaerlla melonis): 0.05 cm
- inhibition at 1000 µg/mL (Mycosphaerlla melonis): 99.4%
- Average Diameter of the Colony (F. graminearum): 2.74 cm
- inhibition at 1000 µg/mL (F. graminearum): 68.1%
- Average Diameter of the Colony (Fusarium graminearum): 1.40 cm
- inhibition at 1000 µg/mL (Fusarium graminearum): 73.8%
- Average Diameter of the Colony [5]: 2.95 cm
- inhibition at 1000 µg/mL [5]: 56.6%
- Average Diameter of the Colony [6]: 2.56 cm
- inhibition at 1000 µg/mL [6]: 64.2%
- Average Diameter of the Colony (C. gossypii): 1.33 cm
- inhibition at 1000 µg/mL (C. gossypii): 75.4%
- Average Diameter of the Colony (Coniella diplodiella): 0.00 cm
- inhibition at 1000 µg/mL (Coniella diplodiella): 100%
- Average Diameter of the Colony (Phytophthora infestans [7]): 1.33 cm
- Average Diameter of the Colony (Botrytis cinerea): 0.61 cm
- inhibition at 1000 µg/mL (Botrytis cinerea): 91.9%
- Control Effect (E. polygoni; 0.10 mg/mL): 83.69%
- Control Effect (E. polygoni; 0.143 mg/mL): 97.09%
- Control Effect (E. polygoni; 0.20 mg/mL): 100%
- antifungal activity on Pythium ultimum compared with carbendazim (Pythium ultimum): superior to that of the control agent, carbendazim
- Average Diameter of the Colony (Phytophthora capsici): 0.75 cm
- inhibition at 1000 µg/mL (Phytophthora capsici): 85.8%
- antifungal activity on Phytophthora capsici compared with hymexazol (Phytophthora capsici): superior to that of the control agent, hymexazol
- control effect on pepper damping-off [8]: 64.57%
- Average Diameter of the Colony (Colletotrichum capsici): 0.83 cm
- inhibition at 1000 µg/mL (Colletotrichum capsici): 87.8%
- Average Diameter of the Colony (F. verticillioide): 2.28 cm
- inhibition at 1000 µg/mL (F. verticillioide): 32.5%
- Average Diameter of the Colony [9]: 2.68 cm
- inhibition at 1000 µg/mL [9]: 63%
- Average Diameter of the Colony (F. oxysporum f. sp. lini): 6.17 cm
- inhibition at 1000 µg/mL (F. oxysporum f. sp. lini): 31.4%
- Average Diameter of the Colony (Rhizoctonia solani): 0.00 cm
- inhibition at 1000 µg/mL (Rhizoctonia solani): 100%
- Control Effect (zucchini powdery mildew): 91.93%
- Control Effect ([10]; 0.143 mg/mL): 79.47%
- Control Effect ([10]; 0.20 mg/mL): 91.55%
- Average Diameter of the Colony (Pythium aphanidermatum): 0.73 cm
- inhibition at 1000 µg/mL (Pythium aphanidermatum): 89.1%
